From PubChem BioAssay (NCI)
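Where inhibition never reached the appropriate level, the endpoint shown equals the highest concentration tested. Otherwise, values were interpolated linearly from a five-concentration, 48-hour dose response in 96-well plates. GI50 marks 50% less growth. TGI: concentration producing complete growth inhibition.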

Key:
Test in all cases: NCI tumour cell line growth inhibition, 48 h
NCI-H226 lung = tested on: NCI-H226 lung
T-47D breast = tested on: T-47D breast
OVCAR-5 ovarian = tested on: OVCAR-5 ovarian
UACC-62 melanoma = tested on: UACC-62 melanoma
HOP-62 NSCLC = tested on: HOP-62 NSCLC
SK-MEL-5 melanoma = tested on: SK-MEL-5 melanoma
NCI-H460 lung = tested on: NCI-H460 lung
EKVX NSCLC = tested on: EKVX NSCLC
OVCAR-3 ovarian = tested on: OVCAR-3 ovarian
HCC-2998 colon = tested on: HCC-2998 colon

`CCCn1c(CN(Cc2nc3ccccc3n2CCC)Cc2nc3ccccc3n2CCC)nc2ccccc21` was tested, and the TGI (NCI-H226 lung) was 27.3 µM, the TGI (T-47D breast) was 28.6 µM and the TGI (OVCAR-5 ovarian) was over 89.9 µM. It also gave a TGI (UACC-62 melanoma) of 18.3 µM, a TGI (HOP-62 NSCLC) of over 91 µM and a TGI (SK-MEL-5 melanoma) of 18.1 µM. It also gave a TGI (NCI-H460 lung) of 18.5 µM, a TGI (EKVX NSCLC) of 40.4 µM and a TGI (OVCAR-3 ovarian) of over 30.4 µM. The TGI (HCC-2998 colon) was 30 µM.

With `CCCCC1c2c([nH]c3ccccc23)C2C(=O)N(c3ccc(OC)cc3)C(=O)C2C1CCC` (configuration not stated) the TGI (NCI-H226 lung) was over 10 µM, the TGI (T-47D breast) was over 10 µM and the TGI (OVCAR-5 ovarian) was over 10 µM. The TGI (UACC-62 melanoma) was 6.77 µM, the TGI (HOP-62 NSCLC) was over 10 µM and the TGI (SK-MEL-5 melanoma) was over 10 µM. For the same compound, the TGI (NCI-H460 lung) was over 10 µM, the TGI (EKVX NSCLC) was over 10 µM and the TGI (OVCAR-3 ovarian) was 6.26 µM. The TGI (HCC-2998 colon) was over 10 µM.

`Cc1csc(-c2cn(C)c3c2C(=O)C(N)=CC3=O)n1` was tested, and the TGI (NCI-H226 lung) was over 80.1 µM, the TGI (T-47D breast) was over 100 µM and the TGI (OVCAR-5 ovarian) was over 100 µM. The TGI (UACC-62 melanoma) was 26.3 µM, the TGI (HOP-62 NSCLC) was 98.5 µM and the TGI (SK-MEL-5 melanoma) was 3.27 µM. The TGI (NCI-H460 lung) was 15.9 µM, the TGI (EKVX NSCLC) was over 100 µM and the TGI (OVCAR-3 ovarian) was over 67.3 µM. It also gave a TGI (HCC-2998 colon) of over 100 µM.

For `Cc1c2c(n(CCc3ccc(Cl)cc3)c1C)NN=C(C#N)S2(=O)=O`, the TGI (NCI-H226 lung) was over 100 µM, the TGI (T-47D breast) was over 100 µM and the TGI (OVCAR-5 ovarian) was over 100 µM. For the same compound, the TGI (UACC-62 melanoma) was over 100 µM, the TGI (HOP-62 NSCLC) was over 100 µM and the TGI (SK-MEL-5 melanoma) was over 100 µM. It also gave a TGI (NCI-H460 lung) of over 100 µM, a TGI (EKVX NSCLC) of over 100 µM and a TGI (OVCAR-3 ovarian) of over 100 µM. The TGI (HCC-2998 colon) was over 100 µM.

With `CN(C)c1nc(=NCc2ccccc2)ss1` the TGI (NCI-H226 lung) was over 10 µM, the TGI (T-47D breast) was over 10 µM and the TGI (OVCAR-5 ovarian) was over 10 µM. It also gave a TGI (UACC-62 melanoma) of over 10 µM, a TGI (HOP-62 NSCLC) of over 10 µM and a TGI (SK-MEL-5 melanoma) of over 10 µM. It also gave a TGI (NCI-H460 lung) of over 10 µM, a TGI (EKVX NSCLC) of over 10 µM and a TGI (OVCAR-3 ovarian) of over 10 µM. It also gave a TGI (HCC-2998 colon) of over 10 µM.

Compound `C/C(CC1C2CCCC1C2)=N\NC(N)=O` (configuration not stated) has a TGI (NCI-H226 lung) of over 100 µM, a TGI (T-47D breast) of over 100 µM and a TGI (OVCAR-5 ovarian) of over 100 µM. The TGI (UACC-62 melanoma) was over 100 µM, the TGI (HOP-62 NSCLC) was over 100 µM and the TGI (SK-MEL-5 melanoma) was over 100 µM. The TGI (NCI-H460 lung) was over 100 µM, the TGI (EKVX NSCLC) was over 100 µM and the TGI (OVCAR-3 ovarian) was over 100 µM. For the same compound, the TGI (HCC-2998 colon) was over 100 µM.

Compound `O=c1c2cc3c(cc2[nH]c2ncccc12)OCO3` has a TGI (NCI-H226 lung) of over 10 µM, a TGI (T-47D breast) of over 10 µM and a TGI (OVCAR-5 ovarian) of over 10 µM. The TGI (UACC-62 melanoma) was over 10 µM, the TGI (HOP-62 NSCLC) was over 10 µM and the TGI (SK-MEL-5 melanoma) was over 10 µM. The TGI (NCI-H460 lung) was over 10 µM, the TGI (EKVX NSCLC) was over 10 µM and the TGI (OVCAR-3 ovarian) was over 10 µM. For the same compound, the TGI (HCC-2998 colon) was over 10 µM.

`COC(=O)[C@]12CC[C@H]3CN(C(=O)OCc4ccccc4)[C@H]([C@H]31)[C@H](c1ccco1)N2S(=O)(=O)c1ccc(C)cc1` showed a TGI (NCI-H226 lung) of 58.7 µM, a TGI (T-47D breast) of 93 µM and a TGI (OVCAR-5 ovarian) of over 100 µM. The TGI (UACC-62 melanoma) was 36.1 µM, the TGI (HOP-62 NSCLC) was 74.2 µM and the TGI (SK-MEL-5 melanoma) was 33.3 µM. For the same compound, the TGI (NCI-H460 lung) was 87.8 µM, the TGI (EKVX NSCLC) was over 100 µM and the TGI (OVCAR-3 ovarian) was 40.4 µM. It also gave a TGI (HCC-2998 colon) of 34.5 µM.

`C=C[C@@H]1C(CO)=CCC2[C@H]1CCC1C(C)(C)C(=O)CC[C@]21C` (some centres not stated) showed a TGI (NCI-H226 lung) of over 100 µM, a TGI (T-47D breast) of over 100 µM and a TGI (OVCAR-5 ovarian) of over 100 µM. It also gave a TGI (UACC-62 melanoma) of over 100 µM, a TGI (HOP-62 NSCLC) of over 100 µM and a TGI (SK-MEL-5 melanoma) of over 100 µM. The TGI (NCI-H460 lung) was over 100 µM, the TGI (EKVX NSCLC) was over 100 µM and the TGI (OVCAR-3 ovarian) was over 100 µM. The TGI (HCC-2998 colon) was over 100 µM.

Work on `O=C(NCCN1CCOCC1)c1ccc2cc(C(=O)N3CC(CCl)c4ccc([N+](=O)[O-])cc43)[nH]c2c1` (configuration not stated) yielded a TGI (NCI-H226 lung) of over 100 µM, a TGI (T-47D breast) of over 100 µM and a TGI (OVCAR-5 ovarian) of over 100 µM. For the same compound, the TGI (UACC-62 melanoma) was 43.4 µM, the TGI (HOP-62 NSCLC) was 30.8 µM and the TGI (SK-MEL-5 melanoma) was 4.73 µM. The TGI (NCI-H460 lung) was 26.1 µM, the TGI (EKVX NSCLC) was 86.3 µM and the TGI (OVCAR-3 ovarian) was 33.1 µM. For the same compound, the TGI (HCC-2998 colon) was 29.7 µM.

With `CCN(C(=S)N[C@@H](Cc1ccccc1)C(=O)N[C@@H](CC(C)C)C(=O)OC)c1ccccc1` the TGI (NCI-H226 lung) was over 100 µM, the TGI (T-47D breast) was over 100 µM and the TGI (OVCAR-5 ovarian) was over 100 µM. It also gave a TGI (UACC-62 melanoma) of over 100 µM, a TGI (HOP-62 NSCLC) of over 100 µM and a TGI (SK-MEL-5 melanoma) of over 100 µM. For the same compound, the TGI (NCI-H460 lung) was over 100 µM, the TGI (EKVX NSCLC) was over 100 µM and the TGI (OVCAR-3 ovarian) was over 100 µM. It also gave a TGI (HCC-2998 colon) of over 100 µM.

For `C(=N\NC1=NCCCN1)/c1ccc2ccccc2c1`, the TGI (NCI-H226 lung) was 27.1 µM, the TGI (T-47D breast) was 33 µM and the TGI (OVCAR-5 ovarian) was 21.8 µM. For the same compound, the TGI (UACC-62 melanoma) was 30 µM, the TGI (HOP-62 NSCLC) was 26.5 µM and the TGI (SK-MEL-5 melanoma) was 10.3 µM. It also gave a TGI (NCI-H460 lung) of 17.4 µM, a TGI (EKVX NSCLC) of 32.8 µM and a TGI (OVCAR-3 ovarian) of 32.2 µM. The TGI (HCC-2998 colon) was 10.5 µM.

`O=c1oc(-c2ccc(O)c(O)c2)cc2cccc(O)c12` showed a GI50 (NCI-H226 lung) of 15.2 µM, a TGI (NCI-H226 lung) of 58.7 µM and a TGI (T-47D breast) of 9.46 µM. It also gave a TGI (OVCAR-5 ovarian) of 86.5 µM, a GI50 (UACC-62 melanoma) of 16.6 µM and a TGI (UACC-62 melanoma) of 37.3 µM. For the same compound, the TGI (HOP-62 NSCLC) was 47.3 µM, the TGI (SK-MEL-5 melanoma) was 23.4 µM and the TGI (NCI-H460 lung) was over 68.2 µM. It also gave a TGI (EKVX NSCLC) of 51.2 µM, a TGI (OVCAR-3 ovarian) of over 62.4 µM and a TGI (HCC-2998 colon) of 37 µM.

In the case of `NNC(=O)c1ccc[n+](CCc2ccccc2)c1`, the TGI (NCI-H226 lung) is reported as over 100 µM, the TGI (T-47D breast) is reported as over 100 µM and the TGI (OVCAR-5 ovarian) is reported as over 100 µM. It also gave a TGI (UACC-62 melanoma) of over 100 µM, a TGI (HOP-62 NSCLC) of over 100 µM and a TGI (SK-MEL-5 melanoma) of over 100 µM. It also gave a TGI (NCI-H460 lung) of over 100 µM, a TGI (EKVX NSCLC) of over 100 µM and a TGI (OVCAR-3 ovarian) of over 100 µM. It also gave a TGI (HCC-2998 colon) of over 100 µM.

For `CC1CC[C@@]2(OC1)OC1C[C@H]3[C@@H]4CC[C@H]5CC(OC6OC(CO)C(OC7OC(CO)C(O)C(O)C7OC7OC(CO)C(O)C(O)C7O)C(O)C6O)CCC5(C)[C@H]4CCC3(C)C1[C@@H]2C` (some centres not stated), the TGI (NCI-H226 lung) was 3.37 µM, the TGI (T-47D breast) was 8.51 µM and the TGI (OVCAR-5 ovarian) was 8.08 µM. It also gave a TGI (UACC-62 melanoma) of 16.5 µM, a TGI (HOP-62 NSCLC) of 3.65 µM and a TGI (SK-MEL-5 melanoma) of 13.5 µM. For the same compound, the TGI (NCI-H460 lung) was 11.6 µM, the TGI (EKVX NSCLC) was 2.21 µM and the TGI (OVCAR-3 ovarian) was 5.94 µM. It also gave a TGI (HCC-2998 colon) of 2.06 µM.

Work on `c1ccc2sc(SCSc3nc4ccccc4s3)nc2c1` yielded a TGI (NCI-H226 lung) of over 100 µM, a TGI (T-47D breast) of over 100 µM and a TGI (OVCAR-5 ovarian) of over 100 µM. For the same compound, the TGI (UACC-62 melanoma) was over 100 µM, the TGI (HOP-62 NSCLC) was over 100 µM and the TGI (SK-MEL-5 melanoma) was over 100 µM. The TGI (NCI-H460 lung) was over 100 µM, the TGI (EKVX NSCLC) was over 100 µM and the TGI (OVCAR-3 ovarian) was over 100 µM. For the same compound, the TGI (HCC-2998 colon) was over 100 µM.

For `C1=CC2=CC=CC3c4nc5ccc6ccccc6c5nc4C(=C1)C23` (configuration not stated), the TGI (NCI-H226 lung) was over 100 µM, the TGI (T-47D breast) was over 100 µM and the TGI (OVCAR-5 ovarian) was over 100 µM. The TGI (UACC-62 melanoma) was over 100 µM, the TGI (HOP-62 NSCLC) was over 100 µM and the TGI (SK-MEL-5 melanoma) was over 100 µM. For the same compound, the TGI (NCI-H460 lung) was over 100 µM, the TGI (EKVX NSCLC) was over 100 µM and the TGI (OVCAR-3 ovarian) was over 100 µM. For the same compound, the TGI (HCC-2998 colon) was over 100 µM.
